# Reference: patent US6306876A, “4-[aryl(8-azabicyclo[3.2.1]octan-3-yl)]aminobenzoic acid derivatives” (priority 2000, dated 2001)
# Target: T1, delta-opioid receptor (Rattus norvegicus, UniProt P33533)
# T1 construct: from tissue; host or cells: forebrain particulate (membrane) preparation of male Wistar rats (animals from Charles River, Kingston, N.Y.)
# Test: Rat Brain Delta-Opioid Receptor Binding Assay
# Set-up: species or system rat (Wistar)
# Settings: rat forebrain homogenate, [3H]DPDPE, 25° C., pH 7.4; read-out: Delta K
# T1 sequence (P33533 whole entry): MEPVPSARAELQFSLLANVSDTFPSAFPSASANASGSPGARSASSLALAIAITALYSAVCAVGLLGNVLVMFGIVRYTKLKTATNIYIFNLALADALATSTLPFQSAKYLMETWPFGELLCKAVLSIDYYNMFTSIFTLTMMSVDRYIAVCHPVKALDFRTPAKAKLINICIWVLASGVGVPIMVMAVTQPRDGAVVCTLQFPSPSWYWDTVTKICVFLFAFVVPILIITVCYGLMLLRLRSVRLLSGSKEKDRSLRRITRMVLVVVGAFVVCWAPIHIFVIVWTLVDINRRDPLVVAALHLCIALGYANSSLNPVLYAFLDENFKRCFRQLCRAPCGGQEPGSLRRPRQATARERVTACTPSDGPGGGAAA
compound,measurement,value
"CN1C2CCC1CC(N(c1ccccc1)c1cccc(C(=O)OC(C)(C)C)c1)C2 (stereo not drawn) [Example 38, 1,1-Dimethylethyl 3-[phenyl(endo-8-methyl-8-azabicyclo[3.2.1]octan-3-yl)amino]benzoate]",Ki,459 nM
